Assay results from patent publication US20100292217A1, “RANOLAZINE FOR THE TREATMENT OF CNS DISORDERS” (Gilead Palo Alto, Inc., priority 2009, published 2010).
Read-outs that look alike come from different tables or passages of the source.

Key:
[1] = Sicouri 2008; Chaitman 2006; cited from earlier work
[2] = Brain penetration in rats after continuous intravenous infusion (LC-MS/MS); format: in vivo, Sprague Dawley rats; conditions: for concentration at 1 h / concentration at 2.5 h / concentration at 5 h: 85.5 μg/kg/min
Description: Jugular vein cannulated male Sprague Dawley rats (250-350 g, Charles River Laboratories, Hollister, Calif.) were used to study brain penetration of ranolazine in vivo. Animal use was approved by the Institutional Animal Care and Use Committee, Gilead Sciences. Three rats per group were infused intravenously with ranolazine in saline at 85.5 μg/kg/min. After 1, 2.5 or 5 h animals were sacrificed for plasma and brain collection, and ranolazine concentrations were measured by liquid chromatography coupled with tandem mass spectrometry (LC-MS/MS). Brain tissue was homogenated in 1% 2N HCl acidified 5% sodium fluoride (final homogenate was diluted 3-fold). Plasma and brain homogenate samples (50 μl) were precipitated along with deuterated D3-ranolazine as an internal standard, vortexed and centrifuged. The supernatant (50 μL) was transferred and diluted with water (450 μl) prior to injection (10 μl). High performance liquid chromatography was performed using a Shimadzu LC-10AD liquid chromatograph and a Luna C18(2), 3 μm, 20×2.0 mm column with a mobile phase consisting of water containing 0.1% formic acid (solution A) and acetonitrile (solution B) carried out under isocratic conditions (75% solution A, 25% solution B; flow rate 0.300 ml/min). Mass spectrometric analyses were performed using an API3000 mass spectrometer (Applied Biosystems, Foster City, Calif.) operating in positive ion mode with MRM transition 428.1>98. Brain-to-plasma ranolazine ratios were calculated for each sample as ng ranolazine/g brain divided by ng ranolazine/ml plasma.

WT-Nav1.2 = molecular target: T1, WT-Nav1.2 (Homo sapiens, UniProt Q99250); assay: Whole-cell voltage-clamp of WT-Nav1.2 stably transfected in CHO cells; format: cell-based; conditions: Example 2; methods in present tense, no data given
T1 construct: expressed in transfected cells

Nav1.4 = conditions: inverse sodium gradient, Wang et al. 2008; cited from earlier work
[3] = molecular target: cardiac voltage-gated potassium channel HERG (Homo sapiens, UniProt Q12809); conditions: accounts for mild QT interval prolongation in some subjects; cited from earlier work
WT-Nav1.1 = molecular target: T2, WT-Nav1.1 (Homo sapiens, UniProt P35498); assay: Whole-cell voltage-clamp of WT-Nav1.1 expressed heterologously in tsA201 cells; format: cell-based
T2 construct: expressed in transfected cells; host or cells: tsA201 cells, transient transfection

[4] = system: Nav1.1 mutant channels (R1648H, T875M, R1648C, F1661S, L263V, Q1489K); assay: Whole-cell voltage-clamp of panel of Nav1.1 mutant channels (GEFS+, SMEI, FHM3); format: cell-based, Human
[5] = usual clinical dosages; minority with mild dizziness, nausea, headache, constipation; cited from earlier work
Nav1.1 R1648H = molecular target: T3, Nav1.1 R1648H (Homo sapiens, UniProt P35498, R1648H); assay: Whole-cell voltage-clamp of mutant Nav1.1 R1648H (GEFS+); format: cell-based
T3 construct: expressed in transfected cells; host or cells: tsA201 cells (named for WT; same transient transfection method for mutants)

[6] = 3 μM ranolazine, pulse trains 10-135 Hz
[7] = pulse 300 of 10 Hz train, read-out: Use-Dependent Block of Peak Current IC50
[8] = read-out: Tonic Block of Peak Current IC50
[9] = read-out: Tonic Block of Persistent Current IC50
[10] = summary statement, persistent current evoked by SCN1A mutations, channel not specified

Chain of cardiac voltage-gated potassium channel HERG (Q12809 whole entry): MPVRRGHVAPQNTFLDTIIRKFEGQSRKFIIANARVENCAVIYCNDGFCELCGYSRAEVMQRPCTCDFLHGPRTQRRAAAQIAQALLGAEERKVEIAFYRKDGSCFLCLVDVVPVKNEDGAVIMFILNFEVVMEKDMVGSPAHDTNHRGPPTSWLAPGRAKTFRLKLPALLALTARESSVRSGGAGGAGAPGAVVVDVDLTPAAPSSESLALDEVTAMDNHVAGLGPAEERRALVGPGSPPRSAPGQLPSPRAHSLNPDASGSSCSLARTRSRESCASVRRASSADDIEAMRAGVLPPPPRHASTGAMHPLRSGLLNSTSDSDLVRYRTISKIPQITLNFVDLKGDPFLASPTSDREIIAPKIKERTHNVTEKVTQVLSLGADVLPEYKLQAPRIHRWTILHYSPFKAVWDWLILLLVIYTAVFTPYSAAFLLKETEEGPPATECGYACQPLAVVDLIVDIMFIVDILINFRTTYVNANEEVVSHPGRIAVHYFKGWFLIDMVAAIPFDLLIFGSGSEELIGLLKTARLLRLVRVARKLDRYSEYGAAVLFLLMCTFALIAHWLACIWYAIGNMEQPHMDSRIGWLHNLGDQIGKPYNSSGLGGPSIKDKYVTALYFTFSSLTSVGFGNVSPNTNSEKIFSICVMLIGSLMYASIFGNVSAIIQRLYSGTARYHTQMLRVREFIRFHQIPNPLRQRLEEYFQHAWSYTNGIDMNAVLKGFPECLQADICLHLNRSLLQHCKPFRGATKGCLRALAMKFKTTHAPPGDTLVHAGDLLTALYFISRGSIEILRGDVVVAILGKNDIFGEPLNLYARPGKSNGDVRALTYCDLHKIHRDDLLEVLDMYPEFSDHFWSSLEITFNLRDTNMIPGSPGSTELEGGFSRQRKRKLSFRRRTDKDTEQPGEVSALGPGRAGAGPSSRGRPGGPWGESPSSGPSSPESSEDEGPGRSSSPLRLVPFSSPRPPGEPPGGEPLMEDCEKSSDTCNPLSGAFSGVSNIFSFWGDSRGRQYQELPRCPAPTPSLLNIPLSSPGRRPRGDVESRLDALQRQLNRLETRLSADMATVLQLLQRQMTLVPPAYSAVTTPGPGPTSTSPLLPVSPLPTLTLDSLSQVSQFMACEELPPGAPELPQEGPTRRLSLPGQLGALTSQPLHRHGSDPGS
T1 sequence (Q99250 whole entry): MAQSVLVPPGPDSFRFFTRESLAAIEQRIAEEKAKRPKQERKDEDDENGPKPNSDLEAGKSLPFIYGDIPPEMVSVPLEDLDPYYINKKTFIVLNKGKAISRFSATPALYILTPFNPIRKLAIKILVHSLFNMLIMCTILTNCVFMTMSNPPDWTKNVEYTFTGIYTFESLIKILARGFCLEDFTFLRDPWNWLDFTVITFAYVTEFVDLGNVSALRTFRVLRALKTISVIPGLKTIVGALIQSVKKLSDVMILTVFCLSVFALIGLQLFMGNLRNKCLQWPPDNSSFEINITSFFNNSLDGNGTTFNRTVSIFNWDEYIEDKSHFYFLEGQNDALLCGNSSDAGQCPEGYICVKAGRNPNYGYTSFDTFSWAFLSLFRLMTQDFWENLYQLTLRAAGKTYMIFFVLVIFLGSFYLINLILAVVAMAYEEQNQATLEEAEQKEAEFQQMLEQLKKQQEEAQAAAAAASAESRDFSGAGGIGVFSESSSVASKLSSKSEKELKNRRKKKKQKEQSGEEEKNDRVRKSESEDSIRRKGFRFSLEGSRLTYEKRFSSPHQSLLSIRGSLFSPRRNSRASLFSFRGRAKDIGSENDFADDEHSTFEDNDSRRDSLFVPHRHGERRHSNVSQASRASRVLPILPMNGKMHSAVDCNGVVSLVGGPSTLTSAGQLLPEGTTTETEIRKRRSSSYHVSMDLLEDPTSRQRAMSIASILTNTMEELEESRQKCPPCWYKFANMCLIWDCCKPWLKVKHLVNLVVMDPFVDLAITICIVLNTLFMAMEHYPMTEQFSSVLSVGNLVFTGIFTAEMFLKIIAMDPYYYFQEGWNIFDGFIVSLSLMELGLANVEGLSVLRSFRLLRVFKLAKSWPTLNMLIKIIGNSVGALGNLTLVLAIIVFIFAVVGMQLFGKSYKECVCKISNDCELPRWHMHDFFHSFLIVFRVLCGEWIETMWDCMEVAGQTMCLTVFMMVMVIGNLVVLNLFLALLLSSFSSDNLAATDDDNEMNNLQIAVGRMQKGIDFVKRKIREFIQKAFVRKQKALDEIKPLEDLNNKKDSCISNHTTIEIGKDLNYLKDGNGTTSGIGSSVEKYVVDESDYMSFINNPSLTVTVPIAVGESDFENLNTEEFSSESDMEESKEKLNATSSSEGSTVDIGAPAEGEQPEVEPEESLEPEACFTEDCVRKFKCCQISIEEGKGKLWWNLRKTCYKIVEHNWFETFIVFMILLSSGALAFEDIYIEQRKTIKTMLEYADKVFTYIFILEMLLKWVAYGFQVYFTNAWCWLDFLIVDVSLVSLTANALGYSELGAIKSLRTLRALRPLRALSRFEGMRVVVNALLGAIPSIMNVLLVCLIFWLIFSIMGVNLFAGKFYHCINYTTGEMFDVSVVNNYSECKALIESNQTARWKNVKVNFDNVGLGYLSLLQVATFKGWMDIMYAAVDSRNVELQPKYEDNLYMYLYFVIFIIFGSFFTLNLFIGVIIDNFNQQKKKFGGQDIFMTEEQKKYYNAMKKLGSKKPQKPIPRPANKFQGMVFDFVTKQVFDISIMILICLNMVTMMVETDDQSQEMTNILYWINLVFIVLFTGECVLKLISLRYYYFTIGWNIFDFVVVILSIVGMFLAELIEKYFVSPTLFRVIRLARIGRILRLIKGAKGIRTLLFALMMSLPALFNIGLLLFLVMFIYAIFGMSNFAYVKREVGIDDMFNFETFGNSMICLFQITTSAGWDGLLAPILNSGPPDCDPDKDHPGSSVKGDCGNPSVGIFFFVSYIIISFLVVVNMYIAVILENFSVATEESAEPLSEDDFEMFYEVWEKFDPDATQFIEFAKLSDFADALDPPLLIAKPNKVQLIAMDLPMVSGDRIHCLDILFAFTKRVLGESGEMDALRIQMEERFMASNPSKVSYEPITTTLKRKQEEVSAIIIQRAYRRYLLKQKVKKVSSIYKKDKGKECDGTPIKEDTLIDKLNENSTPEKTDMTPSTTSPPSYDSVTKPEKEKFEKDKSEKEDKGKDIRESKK

Feasible brain concentration ([2]; extrapolated from therapeutic plasma concentration 2-10 μM): up to 3.3 μM
Kp at 1 h ([2]; male, Sprague Dawley, brain, iv, rat, i.v. infusion 85.5 μg/kg/min, 1 h, read-out: Brain/Plasma): 0.38
Kp at 2.5 h ([2]; male, Sprague Dawley, brain, iv, rat, i.v. infusion 85.5 μg/kg/min, 2.5 h, read-out: Brain/Plasma): 0.38
Kp at 5 h ([2]; male, Sprague Dawley, brain, iv, rat, i.v. infusion 85.5 μg/kg/min, 5 h, read-out: Brain/Plasma): 0.3
concentration at 1 h ([2]; male, Sprague Dawley, rat, brain, iv, Brain (molar), rat, i.v. infusion 85.5 μg/kg/min, 1 h, heading: Brain): 700 nM
concentration at 2.5 h ([2]; male, Sprague Dawley, rat, brain, iv, Brain (molar), rat, i.v. infusion 85.5 μg/kg/min, 2.5 h, heading: Brain): 1040 nM
concentration at 1 h ([2]; male, Sprague Dawley, rat, brain, iv, rat, i.v. infusion 85.5 μg/kg/min, 1 h, read-out: Brain): 298 ± 88.6 ng/g
concentration at 2.5 h ([2]; male, Sprague Dawley, rat, brain, iv, rat, i.v. infusion 85.5 μg/kg/min, 2.5 h, read-out: Brain): 446 ± 302 ng/g
concentration at 5 h ([2]; male, Sprague Dawley, rat, brain, iv, rat, i.v. infusion 85.5 μg/kg/min, 5 h, read-out: Brain): 470 ± 300 ng/g
concentration at 1 h ([2]; male, Sprague Dawley, rat, plasma, iv, rat, i.v. infusion 85.5 μg/kg/min, 1 h, read-out: Plasma): 777 ± 255 ng/mL
concentration at 2.5 h ([2]; male, Sprague Dawley, rat, plasma, iv, rat, i.v. infusion 85.5 μg/kg/min, 2.5 h, read-out: Plasma): 1180 ± 456 ng/mL
concentration at 5 h ([2]; male, Sprague Dawley, rat, plasma, iv, rat, i.v. infusion 85.5 μg/kg/min, 5 h, heading: Plasma, read-out: Plasma): 3720 nM
concentration at 5 h ([2]; male, Sprague Dawley, rat, plasma, iv, rat, i.v. infusion 85.5 μg/kg/min, 5 h, read-out: Plasma): 1590 ± 488 ng/mL
Brain penetration ([2]; rat, all time points (1, 2.5, 5 h)): significant brain penetration
Brain ([2]; rat, i.v. infusion 85.5 μg/kg/min, 5 h): 470 ng/g
Mean brain levels as fraction of corresponding plasma levels ([2]; rat, throughout the time course 1-5 h): approximately one third
Inhibition of WT-Nav1.2 (WT-Nav1.2): has the ability to inhibit WT-Nav1.2
Potency at inhibiting persistent current compared to use-dependent block of peak current (WT-Nav1.1): 3.6 fold
Selectivity for tonic block of persistent current over peak current (WT-Nav1.1): approximately 16 fold
Tonic Block of Peak Current k (Hill slope) (WT-Nav1.1): −0.84 ± 0.15
Tonic Block of Persistent Current k (Hill slope) (WT-Nav1.1): −0.83 ± 0.06
Effect on peak current density (WT-Nav1.1; 30 μM ranolazine): no significant effect
Shift of voltage-dependence of activation or inactivation (WT-Nav1.1; 30 μM ranolazine): did not significantly shift
Tonic block of peak current (WT-Nav1.1; 30 μM ranolazine): minimal
Inactivation k (slope factor) (WT-Nav1.1; 30 μM ranolazine, fast inactivation): −8.0 ± 0.5 mV
Inactivation V1/2 (WT-Nav1.1; 30 μM ranolazine, fast inactivation, 100 ms prepulses): −64.2 ± 0.8 mV
Activation V1/2 (WT-Nav1.1; 30 μM ranolazine, n=10): −21.6 ± 0.8 mV
Activation k (slope factor) (WT-Nav1.1; 30 μM ranolazine, n=10): 8.0 ± 0.2 mV
Use-Dependent Block of Peak Current k (Hill slope) (WT-Nav1.1; 10 Hz train): −0.84 ± 0.05
IC50 (WT-Nav1.1; [7]): 195 µM
IC50 (WT-Nav1.1; [8]): 871 µM
IC50 (WT-Nav1.1; [9]): 53.7 µM
Potency at inhibiting persistent current compared to use-dependent block of peak current (Nav1.1 R1648H): 4.6 fold
Selectivity for tonic block of persistent current over peak current (Nav1.1 R1648H): approximately 16 fold
Tonic Block of Peak Current k (Hill slope) (Nav1.1 R1648H): −1.00 ± 0.19
Tonic Block of Persistent Current k (Hill slope) (Nav1.1 R1648H): −1.00 ± 0.09
Effect on persistent current (Nav1.1 R1648H; 30 μM ranolazine): substantially reduced
Tonic block of peak current (Nav1.1 R1648H; 30 μM ranolazine): minimal tonic block
Use-Dependent Block of Peak Current k (Hill slope) (Nav1.1 R1648H; 10 Hz train): −0.88 ± 0.03
IC50 (Nav1.1 R1648H; [7]): 138 µM
IC50 (Nav1.1 R1648H; [8]): 490 µM
IC50 (Nav1.1 R1648H; [9]): 30.2 µM
SMILES: COc1ccccc1OCC(O)CN1CCN(CC(=O)Nc2c(C)cccc2C)CC1 (racemic) [Ranolazine, (±)-N-(2,6-dimethylphenyl)-4-[2-hydroxy-3-(2-methoxyphenoxy)-propyl]-1-piperazineacetamide]
Usual therapeutic plasma concentration [1]: 2 to 10 µM
Association rate kon (Nav1.4): 8.2e+06 M⁻¹ s⁻¹
Block of HERG [3]: blocks
Use-dependent block: loss of channel availability (WT-Nav1.1; [6]): exaggerated loss of availability at all frequencies greater than 22 Hz
Use-dependent block: peak current during repetitive pulsing (WT-Nav1.1; 30 μM ranolazine, 5 ms, −10 mV, 300 pulses, 10 Hz): caused a reduction in peak current during repetitive pulsing
Use-dependent block: channel availability by the 300th pulse ([4]; 30 μM ranolazine, WT-Nav1.1 and mutant channels, 10 Hz): significant loss of channel availability
Block of persistent current compared to peak current ([4]; 30 μM ranolazine, all mutants, tonic block): much greater degree of ranolazine block of persistent current as compared to peak current
Use-dependent reduction in channel availability compared to WT-Nav1.1 ([4]; 30 μM ranolazine, mutants R1648H, T875M and R1648C): significantly greater reduction in channel availability
Level of persistent current in presence of ranolazine versus WT-Nav1.1 without drug ([4]; 30 μM ranolazine, mutants R1648H, T875M, L263V): not significantly different from WT-Nav1.1 channels in the absence of drug
Greater inhibition of persistent current compared to tonic block of peak current [4, 10]: 16 fold
Greater inhibition of persistent current compared to use-dependent block of peak current [4, 10]: 5 fold
Tolerability [5]: well tolerated
Charge conducted during slow depolarizing voltage ramp (−40 to 0 mV, normalized to peak current) (Nav1.1 R1648H; 3 μM ranolazine, 20 mV/s ramp): reduced the charge conducted by R1648H to the level observed in cells expressing WT channels recorded in the absence of drug
Use-dependent block: loss of channel availability (Nav1.1 R1648H; [6]): exaggerated loss of availability at all frequencies greater than 22 Hz
